Where two headings read alike, the source gives them in different places.
What was measured:
Assay in all cases: Kinase panel profiling at 1 µmol/L (MSA or IMAP), percentage inhibition
Format in all cases: biochemical
[1] = target: panel of 255 wild-type kinases (Homo sapiens, UniProt P49841); settings: kinase GSK3β; 1 µmol/L single concentration
[2] = target: panel of 255 wild-type kinases (Homo sapiens, UniProt P06213); settings: read-out: %-inhibition at 1 µmol/L, INSR
[3] = target: panel of 255 wild-type kinases (Homo sapiens, UniProt Q9P1W9); settings: read-out: %-inhibition at 1 µmol/L, PIM2
[4] = target: T1, panel of 255 wild-type kinases (Homo sapiens, UniProt Q96PY6); settings: read-out: %-inhibition, NEK1
T1 sequence (Q96PY6 1-1258): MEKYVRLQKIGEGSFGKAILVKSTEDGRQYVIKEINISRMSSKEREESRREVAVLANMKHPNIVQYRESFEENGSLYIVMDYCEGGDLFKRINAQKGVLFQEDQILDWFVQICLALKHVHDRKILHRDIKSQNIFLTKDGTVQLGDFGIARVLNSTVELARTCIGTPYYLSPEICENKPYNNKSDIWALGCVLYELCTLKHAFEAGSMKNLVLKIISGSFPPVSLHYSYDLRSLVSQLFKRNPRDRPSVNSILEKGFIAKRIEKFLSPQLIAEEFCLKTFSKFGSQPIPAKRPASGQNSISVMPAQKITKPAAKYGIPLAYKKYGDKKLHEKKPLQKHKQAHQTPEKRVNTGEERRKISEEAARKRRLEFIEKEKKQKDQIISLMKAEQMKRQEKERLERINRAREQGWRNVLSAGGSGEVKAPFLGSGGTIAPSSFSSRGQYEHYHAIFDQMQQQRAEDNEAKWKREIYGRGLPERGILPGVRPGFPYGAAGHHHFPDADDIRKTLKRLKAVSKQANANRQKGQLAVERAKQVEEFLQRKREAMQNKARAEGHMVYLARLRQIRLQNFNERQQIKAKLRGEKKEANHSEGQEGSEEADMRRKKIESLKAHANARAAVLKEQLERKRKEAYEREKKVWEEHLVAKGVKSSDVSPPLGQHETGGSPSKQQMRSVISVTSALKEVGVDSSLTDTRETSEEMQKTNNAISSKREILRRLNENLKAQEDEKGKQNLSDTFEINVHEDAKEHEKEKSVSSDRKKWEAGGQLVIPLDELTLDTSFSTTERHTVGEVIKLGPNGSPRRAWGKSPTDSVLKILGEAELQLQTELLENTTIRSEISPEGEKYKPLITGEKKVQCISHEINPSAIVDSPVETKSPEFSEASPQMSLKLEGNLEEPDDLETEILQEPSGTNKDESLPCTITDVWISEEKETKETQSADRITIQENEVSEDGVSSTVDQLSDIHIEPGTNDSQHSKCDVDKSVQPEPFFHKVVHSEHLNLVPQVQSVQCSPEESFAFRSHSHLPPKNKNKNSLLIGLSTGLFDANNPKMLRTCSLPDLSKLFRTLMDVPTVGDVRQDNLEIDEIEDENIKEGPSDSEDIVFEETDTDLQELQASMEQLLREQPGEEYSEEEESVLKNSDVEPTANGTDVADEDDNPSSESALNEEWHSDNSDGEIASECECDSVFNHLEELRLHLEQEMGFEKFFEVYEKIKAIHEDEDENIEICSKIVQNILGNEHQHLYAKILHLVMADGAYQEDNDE

[5] = target: panel of 255 wild-type kinases (Homo sapiens, UniProt Q9NYY3); settings: read-out: %-inhibition at 1 µmol/L, PLK2
[6] = target: panel of 255 wild-type kinases (Homo sapiens, UniProt P08581); settings: MET; 1 µmol/L single concentration
[7] = target: T2, panel of 255 wild-type kinases (Homo sapiens, UniProt P53778); settings: read-out: %-inhibition, p38γ
T2 sequence (P53778 1-367): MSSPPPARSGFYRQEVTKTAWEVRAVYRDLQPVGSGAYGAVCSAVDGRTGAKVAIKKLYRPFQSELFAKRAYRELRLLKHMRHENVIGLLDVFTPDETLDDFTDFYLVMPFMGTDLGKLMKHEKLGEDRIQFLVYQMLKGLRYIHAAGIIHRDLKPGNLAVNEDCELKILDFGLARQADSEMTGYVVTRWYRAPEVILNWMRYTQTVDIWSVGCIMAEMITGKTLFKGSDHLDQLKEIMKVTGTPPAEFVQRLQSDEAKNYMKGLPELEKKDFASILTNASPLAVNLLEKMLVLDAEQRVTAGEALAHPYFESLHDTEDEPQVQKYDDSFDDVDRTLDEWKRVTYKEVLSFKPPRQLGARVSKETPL

[8] = target: T3, panel of 255 wild-type kinases (Homo sapiens, UniProt P43403); settings: read-out: %-inhibition at 1 µmol/L, ZAP70
T3 sequence (P43403 1-619): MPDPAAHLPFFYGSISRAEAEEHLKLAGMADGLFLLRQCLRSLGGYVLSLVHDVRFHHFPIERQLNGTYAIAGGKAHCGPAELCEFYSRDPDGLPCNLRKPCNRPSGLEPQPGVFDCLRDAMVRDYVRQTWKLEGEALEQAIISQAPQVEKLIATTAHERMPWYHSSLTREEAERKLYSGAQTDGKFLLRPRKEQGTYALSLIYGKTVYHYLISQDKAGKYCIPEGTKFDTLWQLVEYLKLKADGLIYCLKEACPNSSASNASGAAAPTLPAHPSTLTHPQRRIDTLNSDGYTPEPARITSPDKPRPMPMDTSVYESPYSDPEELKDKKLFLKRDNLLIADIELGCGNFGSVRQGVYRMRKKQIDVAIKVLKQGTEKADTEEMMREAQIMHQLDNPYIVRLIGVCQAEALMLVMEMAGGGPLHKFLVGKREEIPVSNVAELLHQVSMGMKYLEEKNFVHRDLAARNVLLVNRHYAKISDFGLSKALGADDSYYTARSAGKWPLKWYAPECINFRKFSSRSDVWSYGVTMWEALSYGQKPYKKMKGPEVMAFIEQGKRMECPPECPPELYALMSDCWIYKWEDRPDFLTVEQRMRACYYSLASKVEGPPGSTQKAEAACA

[9] = target: panel of 255 wild-type kinases (Homo sapiens, UniProt Q9UM73); settings: read-out: %-inhibition ALK
[10] = kinase INSR, 1 µmol/L single concentration
[11] = kinase PIM2, 1 µmol/L single concentration
[12] = NEK1, 1 µmol/L single concentration
[13] = kinase PLK2, 1 µmol/L single concentration
[14] = p38γ, 1 µmol/L single concentration
[15] = kinase ZAP70, 1 µmol/L single concentration
[16] = ALK kinase assay, 1 µmol/L single concentration

| Compound | inhibition at 1 µM [1] | inhibition at 1 µM [2, 10] | inhibition at 1 µM [3, 11] | inhibition at 1 µM [4, 12] | inhibition at 1 µM [5, 13] | inhibition at 1 µM [6] | inhibition at 1 µM [7, 14] | inhibition at 1 µM [8, 15] | inhibition at 1 µM [9, 16] | inhibition at 1 µM [2] | inhibition at 1 µM [3] | inhibition at 1 µM [9] | inhibition at 1 µM [4] | inhibition at 1 µM [5] | inhibition at 1 µM [7] | inhibition at 1 µM [8] |
| --- | --- | --- | --- | --- | --- | --- | --- | --- | --- | --- | --- | --- | --- | --- | --- | --- |
| CCN1C(=O)N(c2c(F)c(OC)cc(OC)c2F)Cc2cnc3[nH]c(CN4CCOCC4)cc3c21 [pemigatinib] | -7% | 9% | -6% | 10% | 0.757% | -2.49% | 1.73% | 2% | -1.12% | – | – | – | – | – | – | – |
| CNC(=O)c1ccc(-c2cnc3ncc(Cc4ccc5ncccc5c4)n3n2)cc1F [capmatinib] | – | – | – | – | – | – | – | – | – | 4.5% | -4.65% | 28% | -8% | 7% | -1.26% | 4% |
| FC(F)(F)c1ccc(CNc2ccc(Cc3c[nH]c4ncc(Cl)cc34)cn2)cn1 [pexidartinib] | 4.44% | 17% | -2.72% | -1.38% | 7% | – | 2.47% | -7% | 11% | – | – | – | – | – | – | – |
| Cc1nc(NC(=O)N2CCC[C@H]2C(N)=O)sc1-c1ccnc(C(C)(C)C(F)(F)F)c1 [alpelisib] | -4% | -2.57% | -6.4% | -0.542% | 10% | -1% | -6% | 1.11% | 1.84% | – | – | – | – | – | – | – |
| C=CC(=O)N1CCC([C@@H]2CCNc3c(C(N)=O)c(-c4ccc(Oc5ccccc5)cc4)nn32)CC1 [zanubrutinib] | -9% | 4% | -7% | -4% | 0.329% | -2.35% | 4% | 2% | 2.23% | – | – | – | – | – | – | – |
| C[C@H]1Oc2cc(cnc2N)-c2c(nn(C)c2C#N)CN(C)C(=O)c2ccc(F)cc21 [lorlatinib] | -4.7% | 64% | -3.36% | 0.741% | 10% | 4.66% | -4.48% | 6% | – | – | – | – | – | – | – | – |
| CCN1CCN(c2ccc(Nc3cc(N(C)C(=O)Nc4c(Cl)c(OC)cc(OC)c4Cl)ncn3)cc2)CC1 [infigratinib] | -9% | 17% | -7% | -5% | 3.65% | 0.848% | -3% | -2.77% | 43% | – | – | – | – | – | – | – |

Now from value to compound, other results behind:

| inhibition at 1 µM [1] | inhibition at 1 µM [2, 10] | inhibition at 1 µM [3, 11] | inhibition at 1 µM [4, 12] | inhibition at 1 µM [5, 13] | inhibition at 1 µM [6] | inhibition at 1 µM [7, 14] | inhibition at 1 µM [8, 15] | inhibition at 1 µM [9, 16] | Compound | inhibition at 1 µM [2] | inhibition at 1 µM [3] | inhibition at 1 µM [9] | inhibition at 1 µM [4] | inhibition at 1 µM [5] | inhibition at 1 µM [7] | inhibition at 1 µM [8] |
| --- | --- | --- | --- | --- | --- | --- | --- | --- | --- | --- | --- | --- | --- | --- | --- | --- |
| -8% | 3% | -3.45% | -5% | 2.78% | -0.807% | -1.75% | -1.11% | – | Cn1cnc2c(F)c(Nc3ccc(Br)cc3Cl)c(C(=O)NOCCO)cc21 [selumetinib] | – | – | – | – | – | – | – |
| 40% | 1.51% | -6% | -0.568% | 4% | 23% | 0.277% | 8% | 4% | COc1ccc(CN2C3CC2CN(c2ccc(-c4cc(OCC(C)(C)O)cn5ncc(C#N)c45)cn2)C3)cn1 [selpercatinib] | – | – | – | – | – | – | – |
| -11% | 2% | -6.57% | -2.72% | 2.14% | -4% | 2.3% | 4.69% | 7% | O=C(Nc1cnn2ccc(N3CCC[C@@H]3c3cc(F)ccc3F)nc12)N1CC[C@H](O)C1 [larotrectinib] | – | – | – | – | – | – | – |
| -0.808% | -0.398% | -6.49% | -3.74% | 13% | 1.63% | -4% | 2% | 3.74% | C[C@H](Nc1ncnc2nc[nH]c12)c1cc2cccc(Cl)c2c(=O)n1-c1ccccc1 [duvelisib] | – | – | – | – | – | – | – |
| 51% | 10% | -4% | -5% | 6.54% | 5.27% | -1.77% | 9% | 35% | CO[C@]1(C(=O)N[C@@H](C)c2ccc(-n3cc(F)cn3)nc2)CC[C@H](c2nc(C)cc(Nc3cc(C)[nH]n3)n2)CC1 [pralsetinib] | – | – | – | – | – | – | – |
| 8% | 3% | -3.72% | 1.77% | 7% | 5.33% | -1.75% | 3.36% | 32% | Cc1cc(Nc2ncnc3ccc(NC4=NC(C)(C)CO4)cc23)ccc1Oc1ccn2ncnc2c1 [tucatinib] | – | – | – | – | – | – | – |
| -1.84% | 6% | -6.4% | -1.21% | -5% | 0.851% | 2% | -1.09% | 6.37% | Cn1cnc2c(F)c(Nc3ccc(Br)cc3F)c(C(=O)NOCCO)cc21 [binimetinib] | – | – | – | – | – | – | – |
